Measured values taken from patent US6376670B1, “Quinoline-indole antimicrobial agents, uses and compositions related thereto” (Sepracor Inc., priority 1997, dated 2002).
Read-outs that look alike come from different tables or passages of the source.

Tests used:
S. aureus (ATCC 33592) = assay: MIC against S. aureus strain; type: cell-based; details: Staphylococcus aureus, ATCC33592
Method: (§1) Stock solutions of compounds are prepared with a concentration of 10 mg/mL. These solutions are then diluted 1:4 to give a concentration of 2.5 mg/mL. The compounds are then serially diluted 1:2 for 6 iterations. The concentrations made for each compound are 2.5, 1.25, 0.625, 0.3125, 0.156, 0.078, and 0.039 mg/mL. A control sample (no compound) is run along with each compound tested. All dilutions are made in DMSO.
(§2) All wells of a 96 well microtiter plate are filled with 100 μL of BHI (Brain-Heart Infusion) broth. Columns on the plate are labeled 1-12, and rows are labeled A-H. Each column of wells is used to test one series of diluted compounds. Into each well of 100 μL of BHI broth, 1 μL of diluted compound is placed for a 1:100 dilution. This makes the final concentration of each drug series 25, 12.5, 6.25, 3.125, 1.56, 0.78, 0.39, and 0 μg/mL.
(§3) Test Organism: A sterile 15 mL screw cap tube is filled wth 3 mL of BHI broth. Next, 2-3 colonies of test organism are inoculated into the tube. The tube is then incubated at 37° C. in a CO2 (approx. 7%) atmosphere jar. The organisms are allowed to grow to the density of a 0.5 McFarland standard (10^8 cells/mL). The organism is then inoculated into each well of the microtiter plate containing the diluted compounds to be tested for MIC. The inoculum is 1 μL in volume and represents 10^5 to 10^6 cells/mL.
(§4) After inoculation the plates are covered and incubated at 37° C. and approx. 7-10% CO2 atmosphere overnight (about 16 hours). The plates are then observed for growth, the well with the lowest concentration of drug and no observable growth represents the well determining the MIC.

S. aureus (ATCC 25923) = assay: MIC against S. aureus strain; type: cell-based; details: Staphylococcus aureus, ATCC25923
Method: as §1, §2, §3, §4

S. aureus (ATCC 29213) = assay: MIC against S. aureus strain; type: cell-based; details: Staphylococcus aureus, ATCC29213
Method: as §1, §2, §3, §4

S. aureus (ATCC 33591) = assay: MIC against S. aureus strain; type: cell-based; details: Staphylococcus aureus, ATCC33591
Method: as §1, §2, §3, §4

VISA-5836 = assay: MIC against VISA strain; type: cell-based; details: Staphylococcus aureus
Method: as §1, §2, §3, §4

VISA-5827 = assay: MIC against VISA strain; type: cell-based; details: Staphylococcus aureus
Method: as §1, §2, §3, §4

[1] = tested on: methicillin-resistant Staphylococcus aureus (MRSA); assay: Determination of MIC values (BHI broth, 96 well microtiter plate); type: cell-based; details: for MIC: Staphylococcus aureus, MRSA, read-out: MIC MRSA
Procedure, shortened: (§5)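 Broth microdilution in BHI broth used final compound concentrations of 25 to 0.39 μg/mL, diluted from DMSO solutions. Inoculum was 10^5–10^6 cells/mL from cultures grown to a 0.5 McFarland standard. Plates were incubated overnight (~16 h) at 37 °C in about 7–10% CO2; MIC was the lowest concentration with no visible growth.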

[2] = Acute in vivo toxicity in mice, intraperitoneal injection; details: in 10% w/v hydroxypropyl-β-cyclodextrin in 0.9% w/v saline, 5 mice
Method: Solutions of compounds in 10% w/v hydroxypropyl-β-cyclodextrin in 0.9% w/v saline were prepared. Doses of 40 mg/kg or 120 mg/kg of each compound were administered to mice (5 mice/compound/dose) via intraperitoneal injections. The mice […] for seven days.

[3] = tested on: vancomycin-resistant Enterococcus spp. (VRE); assay: Determination of MIC values (BHI broth, 96 well microtiter plate); type: cell-based; details: BHI broth; for MIC: Enterococcus, VRE, read-out: MIC VREF
Procedure, shortened: as §5

Streptococcus pneumoniae = assay: as above; type: cell-based; details: BHI broth; for MIC: Streptococcus pneumoniae, read-out: MIC S. pneu
Procedure, shortened: as §5

[4] = 16 h, BHI broth, 37° C., about 16 hours

Structure (SMILES)	MIC (S. aureus (ATCC 33592)) [µg/mL]	MIC (S. aureus (ATCC 25923)) [µg/mL]	MIC (S. aureus (ATCC 29213)) [µg/mL]	MIC (S. aureus (ATCC 33591)) [µg/mL]	Mice Surviving on Day 7 ([2]; 40 mg/kg intraperitoneal) [%]	Mice Surviving on Day 7 ([2]; 120 mg/kg intraperitoneal) [%]	also measured
NCC(O)CNC(=O)c1cc(-c2c[nH]c3ccc(Br)cc23)nc2cc(Cl)cc(Cl)c12 (centres unmarked) [Entry 11]	< 7	< 7	< 7	< 7	–	–	–
COc1ccc(NC(=O)c2cc(-c3c[nH]c4ccc(Br)cc34)nc3ccc(C#CCN4CCCCC4)cc23)cc1 [compound 3]	–	–	–	–	–	–	MIC (VISA-5836): < 7 µg/mL; MIC (VISA-5827): < 7 µg/mL; MIC [1]: < 7 µg/mL
COC(=O)c1cc(-c2c[nH]c3ccc(Br)cc23)nc2cc(F)ccc12 [compound 4]	–	–	–	–	–	–	MIC (VISA-5836): < 7 µg/mL; MIC (VISA-5827): < 7 µg/mL; MIC [1]: < 7 µg/mL
NCc1ccc(CNC(=O)c2cc(-c3c[nH]c4ccc(Br)cc34)nc3ccc(C#CCN4CCCCC4)cc23)cc1 [compound 2]	–	–	–	–	–	–	MIC (VISA-5836): < 7 µg/mL; MIC (VISA-5827): < 7 µg/mL; MIC [1]: < 7 µg/mL
Clc1ccc2[nH]cc(-c3cc(Cl)c4ccccc4n3)c2c1 [Example 342]	–	–	–	–	100	100	MIC ([3]; VREF, overnight 37° C.): > 25 µg/mL; MIC (Streptococcus pneumoniae; S. pneu, overnight 37° C.): < 7 µg/mL; MIC ([1]; BHI broth, overnight 37° C.): < 7 µg/mL
NCCNC(=O)c1cc(-c2c[nH]c3ccc(Br)cc23)nc2ccc(C#CCN3CCCCC3)cc12 [Example 418]	–	–	–	–	100	0	MIC ([3]; 16 h, 37° C., about 16 hours): < 7 µg/mL; MIC (Streptococcus pneumoniae; 37° C., about 16 hours): < 7 µg/mL; MIC [1, 4]: < 7 µg/mL
CC(C)CNC(=O)c1cc(-c2c[nH]c3ccc(Br)cc23)nc2ccc(C#CCN3CCCCC3)cc12 [compound 9]	> 25	< 25	< 7	< 7	–	–	–
OCc1cc(-c2c[nH]c3ccc(Br)cc23)nc2cc(F)ccc12 [compound 6]	< 7	< 7	< 7	< 7	–	–	–
OCc1cc(-c2c[nH]c3ccc(Br)cc23)nc2cc(F)ccc12 [Example 447]	–	–	–	–	100	80	MIC VREF ([3]; 37° C., about 16 hours): <7 µg/mL; MIC S. pneu (Streptococcus pneumoniae; 37° C., about 16 hours): < 7 µg/mL; MIC MRSA ([1]; BHI broth, 37° C., about 16 hours): < 7 µg/mL
COc1ccc2nc(-c3c[nH]c4ccc(Cl)cc34)ccc2c1 [compound 5]	< 7	< 7	< 7	< 7	–	–	–
COC(=O)c1cc(-c2c[nH]c3ccc(Br)cc23)nc2cc(F)ccc12 [compound 3]	< 7	< 7	< 7	< 7	–	–	–
NCCNC(=O)c1cc(-c2c[nH]c3ccc(Br)cc23)nc2ccc(I)cc12 [Example 107]	–	–	–	–	100	0	MIC ([3]; 16 h, 37° C., overnight (about 16 hours)): < 7 µg/mL; MIC (Streptococcus pneumoniae; 37° C., overnight (about 16 hours)): < 7 µg/mL; MIC ([1]; 16 h, BHI broth, 37° C., overnight (about 16 hours)): < 7 µg/mL
Fc1ccc2c(-c3cc(Cl)c4ccc(Cl)cc4n3)c[nH]c2c1 [Example 461]	–	–	–	–	100	100	MIC ([3]; 16 h, 37° C., about 16 hours): < 7 µg/mL; MIC (Streptococcus pneumoniae; 37° C., about 16 hours): < 7 µg/mL; MIC [1, 4]: < 7 µg/mL
NCCNC(=O)c1cc(-c2c[nH]c3ccc(Br)cc23)nc2cc(Cl)c(C#CCN3CCCCC3)cc12 [Example 380]	–	–	–	–	100	0	MIC ([3]; VREF, overnight 37° C.): < 7 µg/mL; MIC (Streptococcus pneumoniae; S. pneu, overnight 37° C.): < 7 µg/mL; MIC ([1]; BHI broth, overnight 37° C.): < 7 µg/mL
NCc1cc(-c2c[nH]c3ccc(Br)cc23)nc2cc(Cl)ccc12 [compound 7]	< 7	< 7	< 7	< 7	–	–	–
NCCNC(=O)c1cc(-c2c[nH]c3ccc(Br)cc23)nc2cc(Cl)ccc12 [Example 316]	–	–	–	–	80	0	MIC ([3]; VREF, overnight 37° C.): < 7 µg/mL; MIC (Streptococcus pneumoniae; S. pneu, overnight 37° C.): < 7 µg/mL; MIC ([1]; BHI broth, overnight 37° C.): < 7 µg/mL
